Experimental data taken from US20240239790A1, “7-Morpholino-1,6-Naphthyridin-5-yl Derivatives and Pharmaceutical Compositions Thereof Useful as DNA-PK Inhibitor” (adMare Therapeutics Society, priority 2021, published 2024).
Where two headings read alike, the source gives them in different places.

Experiments:
DNA-PK = molecular target: T1, DNA-PK (Homo sapiens, UniProt P78527); experiment: DNA-PK Assay for Biochemical Enzymatic Inhibition (ADP Glo Kinase assay); details: DNA-PK enzyme
T1 construct: purchased Invitrogen PR9107A
Experimental: A biochemical assay was performed to identify IC50 values against DNA-PK activity in a two-step reaction with a kinase reaction followed by ADP Glo™ Kinase assay Kit (Promega V9102).
Three-fold serial dilutions of compounds in DMSO were prepared in kinase assay buffer (50 mM HEPES pH 7.5, 20 mM MgCl2, 100 mM KCl, 50 μM DTT, 10 μg/ml calf thymus DNA, 0.01% Tween 20). Kinase assay buffer was used to prepare compound treatments to 0.02% DMSO (dimethyl sulphoxide) content. DMSO controls were prepared to produce a maximum and minimum luminescence signal for normalization. Substrate (Anaspec, AS-60210-5) and ATP (Promega V9102) and ATP mix was prepared by dilution in kinase assay buffer for 434.4 μM and 64.4 μM final assay concentrations, respectively. Compounds and control were added to 25 ng DNA-PK enzyme (Invitrogen, PR9107A) diluted in kinase buffer in assay plate (Corning 267459) and incubated for 15 minutes at room temperature prior to addition of substrate and ATP mix.
Throughout the assay, each time a reagent was added to the microplate, it was centrifuged for 1 minute at 1300 rcf. All reagents were added, and incubations carried out at room temperature. The reaction was then incubated for 60 minutes. ADP-ATP standards at 0, 4, 10, 40, 80, and 100% ADP (prepared as specified in the ADP Glo™ Kinase assay kit) were also added to the microplate at a volume equal to the total kinase reaction. The ADP Glo™ Kinase Assay kit was then used to quantify DNA-PK activity: following the 60-minute incubation, a 1:1 volume of ADP Glo reagent was added to all wells, then following a further 45-minute incubation, a 1:1 volume of Kinase Detection Reagent was added to all wells. After this two-step assay, plates were incubated in a Synergy-Neo2 plate reader for 30 minutes with gentle shaking, followed by endpoint luminescent read Luminescence data was normalized by subtracting the background signal and expressing all background-adjusted values as a percentage of the average maximum signal. The data was then expressed as percent inhibition by subtracting from 100% (i.e. maximum luminescent signal will be 0% inhibition) and the resulting data plotted against ten concentration points on a logarithmic scale, using GraphPad Prism. Non-linear regression analysis was performed on each concentration response curve and the log [inhibitor] vs response—variable slope (four parameters) equation was selected to generate IC50 values.

[1] = molecular target: T2, DNA-PK phosphorylation at Serine 2056 (Homo sapiens, UniProt P78527); experiment: Cellular Assay for Inhibition of DNA-PK Phosphorylation at Serine 2056 in FaDu cells (sandwich ELISA, neocarzinostatin); assay type: cell-based; details: pSer2056 DNA-PK
T2 construct: FaDu cells were purchased from ATCC; host or cells: FaDu
Outline: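 FaDu cells pre-treated with compound (0.3% DMSO) for 1 h, then neocarzinostatin 1 μg/mL final added for 2 h to induce DSBs. Protein-normalised lysates read by sandwich ELISA for total and pSer2056 DNA-PK; % inhibition normalised between DMSO and NCS controls, IC50 from variable-slope log(inhibitor) fit.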

[2] = system: pDNA-PK induction in HCT116 tumour spheroids; experiment: Multicellular tumour spheroid + radiation, pDNA-PK (ser2056) inhibition, immunohistochemical endpoint, HCT116; assay type: cell-based; details: 20 Gy, 20% O2
Experimental: Multicellular tumour spheroids determination of compound inhibition of pDNA-PK induction following radiation. Tumour spheroids were grown to approximately 0.5 mm in diameter and irradiated with 20 Gy in combination with inhibitor test compounds to determine their potency. Inhibitor concentration for 50% reduction in pDNA-PK induction (IC50) was determined via immunohistochemical staining in spheroid cryosections taken 2 hours following radiation.
(§1) Spheroid+radiation pDNA-PK. Radiation: 20 Gy. Drug: serial dilution 5 or 10 μM down to 3.5 nM (11 wells). Spheroids: 3-6 spheroids per well (300-500 μm diameter). 20% 02 and 5% CO2. 96 well plate format.
Protocol: pre-incubate 1 hours with drug, irradiate with 20 Gy, post-incubate 2 hours with drug, freeze and cryosection ×3 replicates.
Endpoint: fluorescent immunostin pDNA-PK ser2056 and image on microscope.
Analysis: determine EC50 concentration that decreases pDNA-PK induction by 50% after radiation.
Multicellular tumour spheroids determination of compound inhibition of pDNA-PK induction following radiation. Tumour spheroids were grown to approximately 0.5 mm in diameter and irradiated with 20 Gy in combination with inhibitor test compounds to determine their potency. Inhibitor concentration for 50% reduction in pDNA-PK induction (IC50) was determined via immunohistochemical staining in spheroid cryosections taken 2 hours following radiation. For cell survival endpoint 8 Gy radiation was used and 3 hours following radiation spheroids were dissociated, counted and plated for colony forming endpoint.
as §1, with “format. Endpoint: fluorescent immunostain pDNA-PK ser2056 and image on microscope. Analysis: determine EC50 concentrations that decreases pDNA-PK induction by 50% after irradiation.” for “format.”
Multicellular tumour spheroids were used to determine potency of test compounds in a 3D tissue environment using inhibition of pDNA-PK induction following radiation or cell survival as the endpoint. For the pDNA-PK endpoint HCT116 or FaDU tumour spheroids were grown to approximately 0.5 mm in diameter and irradiated with 20 Gy in combination with inhibitor test compounds to determine their potency. Experiments were carried out in 96 well plates containing 0.7 mls of MEM media containing 10% FBS and 10 mM glucose under 20% O2 & 5% CO2 at 37° C. Following dilution of compounds 1:1000 from DMSO stocks, compounds were serially diluted from 10 μM down to 3.5 nM and 5-10 spheroids added. 96 well plates were constantly stirred to avoid spheroids settling during the course of the experiment. The inhibitor concentration for 50% reduction in pDNA-PK induction (EC50) was determined via immunohistochemical staining in spheroid cryosections taken 2 hours following radiation using anti-pDNA-PK (ser 2056) and fixed immediately in formalin following sectioning. For cell survival endpoint 8 Gy radiation was used and, 3 hours following radiation, spheroids were dissociated, counted and plated for colony forming endpoint. Data presented in the table compound potency as EC50 [μM].

[3] = system: pH2AX induction in HCT116 ATM-/- multicellular tumour spheroids; experiment: Prodrug Radiation Sensitization in Multicellular Tumour Spheroids, inhibition of pH2AX induction following radiation; assay type: cell-based
Outline: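 HCT116 and FaDu spheroids (~0.5 mm diameter), ATM-deficient lines included, in MEM/10% FBS/10 mM glucose at 37 °C under 20% vs 5% oxygen with stirring. Prodrugs 10 μM down to 3.5 nM, 20 Gy irradiation. pDNA-PK (ser 2056) or pH2AX (ser 139) scored in formalin-fixed cryosections 1 or 2 h post-radiation.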

[4] = neocarzinostatin 1 μg/mL, Table 1
[5] = Homo sapiens, HCT-116, 2 hours following radiation, Example 9 Study 2, read-out: Spheroid Cell line: HCT116 Immunohistochemical endpoint pDNA-PK inhibition EC50
[6] = Homo sapiens, HCT-116, Spheroid, Cell Line: HCT115 (so in the source), 2 hours following radiation, Example 7, read-out: EC50, Immunohistochemical endpoint, pDNA-PK inhibition

Row | Compound | IC50 (DNA-PK; Table 1) [nM] | IC50 [1, 4] [nM] | EC50 [2, 5] [nM] | EC50 [2, 6] [nM] | also measured
1 | Cn1cc([C@H]2CC[C@@H](Oc3nc(N4CCOCC4)cc4ncc(OCCN5CCOCC5)cc34)CC2)cn1 [Compound 6, 4-(5-(((1s,4s)-4-(1-methyl-1H-pyrazol-4-yl)cyclohexyl)oxy)-3-(2-morpholinoethoxy)-1,6-naphthyridin-7-yl)morpholine] | 10 to 150 | 100 to 1000 |  |  | 
2 | CN(C)S(=O)(=O)Nc1cnc2cc(N3CCOCC3)nc(O[C@H]3CC[C@@H](Nc4ncccn4)CC3)c2c1 [Compound 194, N-[(1s,4s)-4-({3-[(dimethylsulfamoyl)amino]-7-(morpholin-4-yl)-1,6-naphthyridin-5-yl}oxy)cyclohexyl]pyrimidin-2-amine] | < 0.5 | 100 to 1000 | 1000 to 10000 | 1000 to 10000 | 
3 | 5-(((1s,4s)-4-(1H-imidazol-1-yl)cyclohexyl)oxy)-7-morpholino-N-propyl-1,6-naphthyridine-3-carboxamide [Compound 169] | 10 to 150 | 1000 to 10000 |  |  | EC50 ([2]; 2 hours following radiation, Example 9 Study 2, read-out: Spheroid Cell line: HCT116 Immunohistochemical endpoint pDNA-PK inhibition EC50): 10000 to 100000 nM; EC50 ([2]; Spheroid, Cell Line: HCT115 (so in the source), 2 hours following radiation, Example 7, read-out: EC50, Immunohistochemical endpoint, pDNA-PK inhibition): 10000 to 100000 nM; EC50 ([2]; spheroids, Example 8, read-out: Cell line: HCT116 Immunohistochemical endpoint pDNA-PK inhibition EC50): 10000 to 100000 nM
4 | NC(=O)Nc1cnc2cc(N3CCOCC3)nc(O[C@H]3CC[C@@H](Nc4ncccn4)CC3)c2c1 [Compound 196, 1-(7-morpholino-5-(((1s,4s)-4-(pyrimidin-2-ylamino)cyclohexyl)oxy)-1,6-naphthyridin-3-yl)urea] | 1 to 10 | 100 to 1000 | 1000 to 10000 | 1000 to 10000 | 
5 | Cn1c(COC(=O)Nc2cnc3cc(N4CCOCC4)nc(O[C@H]4CC[C@@H](Nc5ncccn5)CC4)c3c2)cnc1[N+](=O)[O-] [LFA108, (3-methyl-2-nitro-imidazol-4-yl)methyl N-[7-morpholino-5-[4-(pyrimidin-2-ylamino)cyclohexoxy]-1,6-naphthyridin-3-yl]carbamate] |  |  |  |  | EC50 ([3]; Homo sapiens, HCT-116, 20 Gy, 5% O2, inner layers, read-out: Prodrug 5% O2 Inner layers EC50): 10 to 500 nM; EC50 ([3]; Homo sapiens, HCT-116, 20 Gy, 5% O2, outer layers, read-out: Prodrug 5% O2 Outer layers EC50): 500 to 1000 nM; EC50 ([3]; Homo sapiens, HCT-116, 20 Gy, 20% O2, outer layers, read-out: Prodrug 20% O2 Outer layers EC50): 1000 to 10000 nM; IC50 (DNA-PK; Table 2): 10 to 150 nM; IC50 ([1]; Table 2): 10000 to 30000 nM
6 | CN(C)C(=O)COc1ccc(N[C@H]2CC[C@@H](Oc3nc(N4CCOCC4)cc4ncccc34)CC2)nn1 [Compound 57, N,N-dimethyl-2-((6-(((1s,4s)-4-((7-morpholino-1,6-naphthyridin-5-yl)oxy)cyclohexyl)amino)pyridazin-3-yl)oxy)acetamide] | 10 to 150 | 10000 to 30000 |  |  | 
7 | CN(C)C(=O)COc1cnc(NC2CCC(Oc3nc(N4CCOCC4)cc4ncc(N(Cc5ncc([N+](=O)[O-])n5C)S(C)(=O)=O)cc34)CC2)nc1 (stereo not shown) [LFA013, N,N-Dimethyl-2-[2-[[4-[[3-[(1-methyl-5-nitro-imidazol-2-yl)methyl-methylsulfonyl-amino]-7-morpholino-1,6-naphthyridin-5-yl]oxy]cyclohexyl]amino]pyrimidin-5-yl]oxy-acetamide] |  |  |  |  | EC50 ([3]; 20 Gy, 5% O2, inner layers, read-out: Prodrug 5% O2 Inner layers EC50): 10 to 500 nM; EC50 ([3]; 20 Gy, 5% O2, outer layers, read-out: Prodrug 5% O2 Outer layers EC50): 1000 to 10000 nM; EC50 ([3]; 20 Gy, 20% O2, outer layers, read-out: Prodrug 20% O2 Outer layers EC50): 1000 to 10000 nM; EC50 ([3]; value of the (unnamed) effector of the listed prodrug, 20 Gy, 5% O2, inner layers, read-out: Effector 5% O2 Inner layers EC50): 10 to 500 nM; IC50 (DNA-PK; Table 2): 10 to 150 nM; IC50 ([1]; Table 2): 1000 to 10000 nM

Now from value to compound, other results behind:

Row | IC50 (DNA-PK; Table 1) [nM] | IC50 [1, 4] [nM] | EC50 [2, 5] [nM] | EC50 [2, 6] [nM] | Compound | also measured
8 | 10 to 150 |  | 10000 to 100000 | 10000 to 100000 | O=S(=O)(Nc1cnc2cc(N3CCOCC3)nc(O[C@H]3CC[C@@H](Nc4ncccn4)CC3)c2c1)C1CCCC1 [Compound 190, N-(7-morpholino-5-(((1s,4s)-4-(pyrimidin-2-ylamino)cyclohexyl)oxy)-1,6-naphthyridin-3-yl)cyclopentanesulfonamide] | 
9 | 1 to 10 | 100 to 1000 |  |  | N#CCC(=O)N[C@H]1CC[C@@H](Oc2nc(N3CCOCC3)cc3ncccc23)CC1 [Compound 107, 2-Cyano-N-((1s,4s)-4-((7-morpholino-1,6-naphthyridin-5-yl)oxy)cyclohexyl)acetamide] | 
10 | 1 to 10 | 10000 to 30000 | 10000 to 100000 | 10000 to 100000 | O=C(NS(=O)(=O)C1CC1)c1cnc2cc(N3CCOCC3)nc(O[C@H]3CC[C@@H](n4ccnc4)CC3)c2c1 [Compound 174, 5-(((1s,4s)-4-(1H-imidazol-1-yl)cyclohexyl)oxy)-N-(cyclopropylsulfonyl)-7-morpholino-1,6-naphthyridine-3-carboxamide] | EC50 ([2]; Homo sapiens, HCT-116, 2 h, spheroids, Example 8, read-out: Cell line: HCT116 Immunohistochemical endpoint pDNA-PK inhibition EC50): 10000 to 100000 nM
11 | 10 to 150 | 1000 to 10000 |  |  | CCOC(=O)c1cnc2cc(N3CCOCC3)nc(O[C@H]3CC[C@@H](n4ccnc4)CC3)c2c1 [Compound 163, ethyl 5-(((1s,4s)-4-(1H-imidazol-1-yl)cyclohexyl)oxy)-7-morpholino-1,6-naphthyridine-3-carboxylate] | 
